What was measured:
prelamin A = experiment: Immunohistochemistry (immunomarking): level of prelamin A in healthy reference cells; type: cell-based, human; details: Pravastatin 100 μM for 12 hours, zoledronate 20 μM for 6 hours; in combination or alone (FIG. 3)
Procedure: (§1) The cell lines are either reference fibroblasts AG16409 from the Coriell Institute, or fibroblasts from biopsies of patients suffering from Restrictive Dermopathy. They are cultivated at 37° C. in 5% CO2 in a P2 room.
(§2) A cell culture is trypsinised and the cells counted on a Neubauer cell.
(§3) Labtech-style culture wells (Nunc, ref 177399) are seeded, at the rate of 5×10^4 cells per well.
(§4) The complete culture medium is supplemented by the treatment or treatments (statin, NBP, or both), and the cells cultivated for an ad hoc time.
(§5) The cells are fixed in a paraformaldehyde 4% solution (in PBS) for 10 minutes at room temperature.
After defrosting, the cells are incubated for 5 minutes at room temperature in a humid chamber in 50 μl of a permeabilisation solution:
(§6) The primary antibody is diluted to 1/100th in 50 μl of incubation solution and put in contact with the cells for 1 hour at room temperature in a humid chamber.
Incubation with the secondary antibody takes place for 1 hour in 50 ml of incubation solution at room temperature in a humid chamber. […]
(§7) The cells are immersed in a drop of VectaShield (Vector), covered with an object-covering blade and observed on a fluorescence microscope (Leica DMR, Leica Microsystems), equipped with a coolSNAP (Princeton) camera system.

healthy cells = experiment: Immunohistochemistry: deformed nuclei / toxicity on healthy reference cells; type: cell-based, human; details: Pravastatin 100 μM for 12 hours, zoledronate 20 μM for 6 hours; in combination or alone (FIG. 3)
Procedure: as §1, §2, §3, §4, §5, §6
Incubation with the secondary antibody takes place for 1 hour in 50 ml of incubation solution at room temperature in a humid chamber. The secondary antibodies are of two types: • Anti-mouse donkey, Jackson Immunoresearch, dilution to 1/100th • Anti-goat donkey, Jackson Immunoresearch, dilution to 1/200th […]
as §7

Row | Compound | level of prelamin A produced in treated healthy cells (prelamin A) | level of deformed nuclei (the sign of toxicity on the healthy cells) (healthy cells)
1 | (1-hydroxy-2-imidazol-1-yl-phosphono-ethyl)phosphonic acid [zoledronate] | 15% | –
2 | CC[C@H](C)C(=O)O[C@H]1C[C@H](O)C=C2C=C[C@H](C)[C@H](CC[C@@H](O)C[C@@H](O)CC(=O)O)[C@H]21 [pravastatin] | 25% | approximately 12%

— patent publication US9072757B2, “Combination of an HMG-CoA reductase inhibitor and a farnesyl-pyrophosphate synthase inhibitor for the treatment of diseases related to the persistence and/or accumulation of prenylated proteins” (UNIVERSITE DE LA MEDITERRANEE AIX-MARSEILLE II, priority 2006, dated 2015)
